Data set [1] in a line: Human whole blood (WB) assay. The class given is in vitro ADME. The conditions noted are these: pH 7.4, 1 μM compound, 37° C., average of 2 to 4 tests, read-out: WB assay, half-life T½. How it is done: Incubations of test compounds in DMSO, diluted with phosphate buffer, pH 7.4, at 1 μM were carried out with human whole blood. The percentage of organic solvent in the incubations was 1%. The incubations were performed at 37° C. with aliquots taken at 0, 15, 30, 60 and 120 minutes, and reactions were terminated by addition of methanol containing analytical internal standard (IS). The results were expressed as half-life (T½) in minutes calculated from the rate constant (k) (min^−1) of test compound depletion.

Data set [2] has as its system TNF-α release in human peripheral blood mononuclear cells (PBMC). Put plainly: TNF-α release. The conditions noted are these: 18 h, read-out: TNF-α release assay, IC50.
Text: Results are expressed as IC50 values (nM) calculated from inhibition curves using as positive controls the secretion in LPS stimulated wells and as negative controls the secretion in unstimulated cells.
Data set [3] in a line: Keratinocyte stability (KC) assay. The data set is classed as in vitro ADME. To be noted: pH 7.4; plated human keratinocytes, 1 μM compound, 37° C.; average of 2 to 4 tests; read-out: KC assay, half-life T½. The procedure:
Incubations of test compounds in DMSO, diluted with growing medium, pH ˜7.4, at 1 μM were carried out with plated human keratinocytes. The percentage of organic solvent in the incubations was 0.5%. The incubations were performed at 37° C. with aliquots taken at 0, 60, 120, 240 and 1440 minutes, and reactions were terminated by addition of methanol containing analytical internal standard (IS). The results were expressed as half-life (T½) in minutes calculated from the rate constant (k) (min^−1) of test compound depletion.

Here are results for four molecules from patent publication US9181248B2, “[1,2,4]triazolopyridines and their use as phosphodiesterase inhibitors” (LEO Pharma A/S, priority 2011, dated 2015).

Regarding `CC[C@H](C)OC(=O)C1(c2nc3c(OC)ccc(-c4ccc5c(c4)COC5=O)n3n2)CC1` [Compound 1, [(1S)-1-Methylpropyl]1-[8-methoxy-5-(1-oxo-3H-isobenzofuran-5-yl)-[1,2,4]triazolo-[1,5-a]pyridin-2-yl]cyclopropanecarboxylate], the half-life at 1 μM in data set [1] was 10.7 min; in data set [3], over 720 min. Moreover, in data set [2], the IC50 is 12.8 nM.

Take `CC[C@@H](C)OC(=O)C1(c2nc3c(OC)ccc(-c4ccc5c(c4)COC5=O)n3n2)CC1` [Compound 2, [(1R)-1-Methylpropyl]1-[8-methoxy-5-(1-oxo-3H-isobenzofuran-5-yl)-[1,2,4]triazolo-[1,5-a]pyridin-2-yl]cyclopropanecarboxylate]: the figures for the half-life at 1 μM in data set [1] and in data set [3] were 12.6 min and over 720 min, respectively. The IC50 in data set [2] amounted to 15.7 nM.

For the molecule `COc1ccc(-c2ccc3c(c2)COC3=O)n2nc(C3(C(=O)OCC(C)C)CC3)nc12` [Compound 3, [2-Methylpropyl]1-[8-methoxy-5-(1-oxo-3H-isobenzofuran-5-yl)-[1,2,4]triazolo[1,5-a]pyridin-2-yl]cyclopropanecarboxylate], the figures for the half-life at 1 μM in data set [1] and in data set [3] were 16.6 min and over 720 min, respectively.

Consider `COc1ccc(-c2ccc3c(c2)COC3=O)n2nc(C3(C(=O)OC(C)(C)C)CC3)nc12` [Compound 4, Tert-butyl 1-[8-methoxy-5-(1-oxo-3H-isobenzofuran-5-yl)-[1,2,4]triazolo[1,5-a]pyridin-2-yl]cyclopropanecarboxylate], for which the half-life at 1 μM in data set [1] was under 11.2 min; in data set [3], over 720 min. Further, the IC50 in data set [2] amounted to 15.3 nM.

For orientation: half-life means the time needed for the level to fall by half in the phase considered. Broadly, the IC50 is the concentration that gives 50% inhibition.
